Results from patent publication US9260500B2, “Peptide and use thereof” (Takeda Pharmaceutical Company Limited, priority 2009, dated 2016).
Non-standard residues stand in square brackets, D forms with d. *: point of attachment. X4 = ((1S)-1-Carboxy-3-methylbutyl)carbamoyl, CC(C)C[C@H](NC(=O)*)C(=O)O; X6 = ((1S)-1-carboxy-2-hydroxyethyl)carbamoyl, O=C(O)[C@H](CO)NC(=O)*; ((1S)-1-Carboxyethyl)carbamoyl = C[C@H](NC(=O)*)C(=O)O; 4Pal = N[C@@H](Cc1ccncc1)C(=O)O; Cha = N[C@@H](CC1CCCCC1)C(=O)O; Aib = CC(C)(N)C(=O)O

Experiments:
[1] = test system: male C57BL/6J mouse; assay: 3-Day Continuous Subcutaneous Administration Test-2 (food intake suppressing activity); type: in vivo; conditions: 0.03 mg/kg/day, subcutaneous Alzet pump, food consumption as of 2 days after start; versus solvent (50% DMSO) control group
Procedure: (5) Test Method: 3-Day Continuous Subcutaneous Administration Test-2
The food intake suppressing activity of the compound of the present invention was examined by the following method.
The test compound was dissolved in a solvent (50% DMSO) so that sustained release would occur at 0.03 mg/kg/day, and the solution was filled in the Alzet Pump (DURECT Corporation, model: 1003D). After the filling, the pump was immersed in physiological saline for priming, and then used. The pump was embedded by the following method. Each male C57BL/6J mouse at 9-10 weeks of age (25° C., allowed to take food and water ad libitum; 12-hour bright-12-hour dark cycle) was anesthetized; the skin in the upper back thereof was incised, and the above-mentioned pump was embedded subcutaneously; the incision was sutured. After weighing, this mouse was returned to the rearing cage (reared alone), and given previously weighed food; food consumption as of 2 days after the start of administration was measured. The food consumption was calculated by subtracting the amount of remaining food from the weight of the food given on the day of the start of administration. From the food consumption obtained, the food intake suppression rate (%) of each test compound was calculated using the following the formula.
A group receiving administration of the aforementioned solvent alone was the control group.
Food intake suppression rate (%): (Food consumption for control group−food consumption for test compound administration group)/food consumption for control group×100

[2] = target: T1, human Y2 receptor (Homo sapiens, UniProt P49146); assay: Receptor Binding Assay (RBA) for Human Y2, [125I]-PYY displacement on hY2R/CHO membrane fraction; conditions: IC50 of test compound/IC50 of PYY(3-36) (PYY(3-36) taken as 1)
T1 construct: expressed in transfected cells; membrane fraction
T1 sequence (P49146 1-381): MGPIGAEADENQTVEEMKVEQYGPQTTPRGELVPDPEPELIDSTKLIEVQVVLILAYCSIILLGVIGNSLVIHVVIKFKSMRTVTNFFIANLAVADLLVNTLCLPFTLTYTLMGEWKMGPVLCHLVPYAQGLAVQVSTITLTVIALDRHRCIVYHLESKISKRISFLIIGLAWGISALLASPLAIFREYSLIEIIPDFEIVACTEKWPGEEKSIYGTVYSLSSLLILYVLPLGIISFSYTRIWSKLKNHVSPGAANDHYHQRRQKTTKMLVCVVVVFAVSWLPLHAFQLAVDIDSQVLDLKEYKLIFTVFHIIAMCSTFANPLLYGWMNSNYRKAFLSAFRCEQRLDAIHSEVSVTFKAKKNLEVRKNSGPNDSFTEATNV
Summary of the method: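 hY2R stably expressed in CHO/dhfr− cells; membrane fraction prepared from cells disrupted in 10 mM NaHCO3, 5 mM EDTA buffer with protease inhibitors. Binding read as displacement of [125I]-PYY.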

[3] = target: T1, human Y2 receptor; assay: Human Y2 Receptor G Protein Binding Assay (GBA), [35S]GTPγS; type: biochemical; conditions: EC50 of test compound/EC50 of PYY(3-36) (PYY3-36 taken as 1), hY2R/CHO membrane fraction
Summary of the method: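 Agonism measured as [35S]GTPγS binding, read by GF/C filtration and scintillation counting after 120 min at room temperature, using human Y2 membranes at 1 μg protein/mL in pH 7.4 Tris/MgCl2/NaCl/GDP buffer. Compound serially diluted 100 μM–1 nM; EC50 normalized to PYY(3-36) (ratio = compound/PYY).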

[4] = test system: male C57EL/6J mice; assay: 3-Days Continuous Subcutaneous Administration Test-1 (food intake suppressing activity); type: in vivo, mouse; conditions: 0.03 mg/kg/day, subcutaneous Alzet pump, food consumption over 3 days; relative to food intake suppression rate for PYY(3-36) (1 mg/kg/day) taken as 100%
Summary of the method: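 Male […] mice, 12-13 weeks, received compound at 0.03 mg/kg/day by subcutaneous osmotic pump (50% DMSO vehicle), housed singly with free food access. Food consumed over 3 days measured; suppression expressed relative to PYY(3-36) (1 mg/kg/day) set as 100%.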

4-Imidazolecarbonyl-[Aib24,31, Iva25, Pya(4)26, Cha27,36, Leu(Me)28, Lys(Ac)30]-PYY(23-36) [compound No. 368]
food intake suppression rate (%) [1]: 34.9%

4-Imidazolecarbonyl-[D-Hyp24, Iva25, Pya(4)26, Cha27,36, Iva28, Lys30, D-Iva31]-PYY(23-36) [compound No. 372]
food intake suppression rate (%) [1]: 27.2%

4-Imidazolecarbonyl-[D-Hyp24, Iva25, Pya(4)26, Cha27,36, Leu(Me)28, Har30, Aib31]-PYY(23-36) [compound No. 367]
food intake suppression rate (%) [1]: 24.0%

4-Imidazolecarbonyl-[D-Hyp24, Iva25, Pya(4)26, Cha27,36, Leu(Me)28, Lys(Ac)30, Aib31]-PYY(23-36) [compound No. 362]
food intake suppression rate (%) [1]: 54.2%

4-Imidazolecarbonyl-[D-Hyp24, Iva25, Pya(4)26, Cha27,36, Leu(Me)28, Lys(Ac)30, D-Iva31]-PYY(23-36) [compound No. 369]
food intake suppression rate (%) [1]: 47.8%

4-Imidazolecarbonyl-[D-Hyp24, Iva25, Pya(4)26, Cha27, Leu(Me)28, Lys30, Aib31, Phe(2,6-Me2)36]-PYY(23-36) [compound No. 360]
food intake suppression rate (%) [1]: 36.7%

4-Imidazolecarbonyl-[D-Hyp24, Pya(4)26, Cha27,36, Iva28, Lys(Ac)30, D-Iva31]-PYY(23-36) [compound No. 374]
food intake suppression rate (%) [1]: 22.6%

4-Imidazolecarbonyl-[D-Hyp24, Pya(4)26, Cha27,36, Leu(Me)28, Lys30, Aib31]-PYY(23-36) [compound No. 370]
food intake suppression rate (%) [1]: 17.9%

4-Imidazolecarbonyl-[D-Pro24, Iva25, Pya(4)26, Cha27,36, Leu(Me)28, Lys(Ac)30, Aib31]-PYY(23-36) [compound No. 365]
food intake suppression rate (%) [1]: 37.8%

4-Imidazolecarbonyl-[D-Pro24, Pya(4)26, Cha27,36, Iva28, Lys30, Aib31]-PYY(23-36) [compound No. 366]
food intake suppression rate (%) [1]: 32.9%

4-Imidazolecarbonyl-[D-Pro24, Pya(4)26, Cha27,36, Iva28, Lys(Ac)30, Aib31]-PYY(23-36) [compound No. 371]
food intake suppression rate (%) [1]: 18.6%

Ac-[Glu23, D-Pro24, Iva25, Pya(4)26, Cha27,36, Leu(Me)28, Lys30, Aib31]-PYY(23-36) [compound No. 363]
food intake suppression rate (%) [1]: 27.7%

Carbamoyl-[D-Hyp24, Iva25, Pya(4)26, Cha27,36, Leu(Me)28, Lys30, Aib31]-PYY(23-36) [compound No. 364]
food intake suppression rate (%) [1]: 37.3%

Thp(4)-CH2NHCO-[D-Hyp24, Iva25, Pya(4)26, Cha27,36, Leu(Me)28, Lys30, Aib31]-PYY(23-36) [compound No. 359]
food intake suppression rate (%) [1]: 43.4%

Thp(4)-CO-[D-Hyp24, Iva25, Pya(4)26, Cha27,36, Leu(Me)28, Lys30, Aib31]-PYY(23-36) [compound No. 361]
food intake suppression rate (%) [1]: 23.3%

Thp(4)-NHCO-[D-Hyp24, Iva25, Pya(4)26, Cha27,36, Leu(Me)28, Lys30, Aib31]-PYY(23-36) [compound No. 358]
food intake suppression rate (%) [1]: 62.5%

[(1S)-1-Carboxy-3-methylbutyl]carbamoyl-[D-Pro24, Pya(4)26, Cha27,36, Aib28,31, Lys30]-PYY(23-36) (X4-S[dP]R[4Pal][Cha][Aib]NK[Aib]TRQR[Cha]-NH2; SMILES CC(C)C[C@H](NC(=O)N[C@@H](CO)C(=O)N1CCC[C@@H]1C(=O)N[C@@H](CCCNC(=N)N)C(=O)N[C@@H](Cc1ccncc1)C(=O)N[C@@H](CC1CCCCC1)C(=O)NC(C)(C)C(=O)N[C@@H](CC(N)=O)C(=O)N[C@@H](CCCCN)C(=O)NC(C)(C)C(=O)N[C@H](C(=O)N[C@@H](CCCNC(=N)N)C(=O)N[C@@H](CCC(N)=O)C(=O)N[C@@H](CCCNC(=N)N)C(=O)N[C@@H](CC1CCCCC1)C(N)=O)[C@@H](C)O)C(=O)O) [compound No. 271]
RBA IC50 Ratio [2]: 0.82
GBA EC50 Ratio [3]: 0.82
food intake suppression rate (%) [4]: 28%

[(1S)-1-Carboxy-3-methylbutyl]carbamoyl-[Gln23, D-Pro24, Pya(4)26, Cha27,36, Aib28,31, Lys30]-PYY(23-36) (X4-Q[dP]R[4Pal][Cha][Aib]NK[Aib]TRQR[Cha]-NH2; SMILES CC(C)C[C@H](NC(=O)N[C@@H](CCC(N)=O)C(=O)N1CCC[C@@H]1C(=O)N[C@@H](CCCNC(=N)N)C(=O)N[C@@H](Cc1ccncc1)C(=O)N[C@@H](CC1CCCCC1)C(=O)NC(C)(C)C(=O)N[C@@H](CC(N)=O)C(=O)N[C@@H](CCCCN)C(=O)NC(C)(C)C(=O)N[C@H](C(=O)N[C@@H](CCCNC(=N)N)C(=O)N[C@@H](CCC(N)=O)C(=O)N[C@@H](CCCNC(=N)N)C(=O)N[C@@H](CC1CCCCC1)C(N)=O)[C@@H](C)O)C(=O)O) [compound No. 284]
RBA IC50 Ratio [2]: 0.93
GBA EC50 Ratio [3]: 1.3
food intake suppression rate (%) [4]: 21%

[(1S)-1-Carboxy-3-methylbutyl]carbamoyl-[Glu23, D-Pro24, Pya(4)26, Cha27,36, Aib28,31, Lys30]-PYY(23-36) (X4-E[dP]R[4Pal][Cha][Aib]NK[Aib]TRQR[Cha]-NH2; SMILES CC(C)C[C@H](NC(=O)N[C@@H](CCC(=O)O)C(=O)N1CCC[C@@H]1C(=O)N[C@@H](CCCNC(=N)N)C(=O)N[C@@H](Cc1ccncc1)C(=O)N[C@@H](CC1CCCCC1)C(=O)NC(C)(C)C(=O)N[C@@H](CC(N)=O)C(=O)N[C@@H](CCCCN)C(=O)NC(C)(C)C(=O)N[C@H](C(=O)N[C@@H](CCCNC(=N)N)C(=O)N[C@@H](CCC(N)=O)C(=O)N[C@@H](CCCNC(=N)N)C(=O)N[C@@H](CC1CCCCC1)C(N)=O)[C@@H](C)O)C(=O)O) [compound No. 283]
RBA IC50 Ratio [2]: 2.2
GBA EC50 Ratio [3]: 2.5
food intake suppression rate (%) [4]: 18%

[(1S)-1-Carboxyethyl]carbamoyl-[D-Pro24, Pya(4)26, Cha27,36, Aib28,31, Lys30]-PYY(23-36) ({((1S)-1-Carboxyethyl)carbamoyl}-S[dP]R[4Pal][Cha][Aib]NK[Aib]TRQR[Cha]-NH2; SMILES C[C@H](NC(=O)N[C@@H](CO)C(=O)N1CCC[C@@H]1C(=O)N[C@@H](CCCNC(=N)N)C(=O)N[C@@H](Cc1ccncc1)C(=O)N[C@@H](CC1CCCCC1)C(=O)NC(C)(C)C(=O)N[C@@H](CC(N)=O)C(=O)N[C@@H](CCCCN)C(=O)NC(C)(C)C(=O)N[C@H](C(=O)N[C@@H](CCCNC(=N)N)C(=O)N[C@@H](CCC(N)=O)C(=O)N[C@@H](CCCNC(=N)N)C(=O)N[C@@H](CC1CCCCC1)C(N)=O)[C@@H](C)O)C(=O)O) [compound No. 286]
RBA IC50 Ratio [2]: 0.78
GBA EC50 Ratio [3]: 0.94
food intake suppression rate (%) [4]: 37%

[(1S)-1-carboxy-2-hydroxyethyl]carbamoyl-[D-Pro24, Pya(4)26, Cha27,36, Aib28,31, Lys30]-PYY(23-36) (X6-S[dP]R[4Pal][Cha][Aib]NK[Aib]TRQR[Cha]-NH2; SMILES C[C@@H](O)[C@H](NC(=O)C(C)(C)NC(=O)[C@H](CCCCN)NC(=O)[C@H](CC(N)=O)NC(=O)C(C)(C)NC(=O)[C@H](CC1CCCCC1)NC(=O)[C@H](Cc1ccncc1)NC(=O)[C@H](CCCNC(=N)N)NC(=O)[C@H]1CCCN1C(=O)[C@H](CO)NC(=O)N[C@@H](CO)C(=O)O)C(=O)N[C@@H](CCCNC(=N)N)C(=O)N[C@@H](CCC(N)=O)C(=O)N[C@@H](CCCNC(=N)N)C(=O)N[C@@H](CC1CCCCC1)C(N)=O) [compound No. 288]
RBA IC50 Ratio [2]: 0.52
GBA EC50 Ratio [3]: 1.3
food intake suppression rate (%) [4]: 28%

[D-Hyp24, Iva25, Pya(4)26, Cha27,36, Leu(Me)28, Lys(Ac)30, Aib31]-PYY(23-36) [compound No. 373]
food intake suppression rate (%) [1]: 17.5%
